The first assay addresses T1, FSH receptor (Homo sapiens, UniProt P23945).
T1 sequence (P23945 18-695): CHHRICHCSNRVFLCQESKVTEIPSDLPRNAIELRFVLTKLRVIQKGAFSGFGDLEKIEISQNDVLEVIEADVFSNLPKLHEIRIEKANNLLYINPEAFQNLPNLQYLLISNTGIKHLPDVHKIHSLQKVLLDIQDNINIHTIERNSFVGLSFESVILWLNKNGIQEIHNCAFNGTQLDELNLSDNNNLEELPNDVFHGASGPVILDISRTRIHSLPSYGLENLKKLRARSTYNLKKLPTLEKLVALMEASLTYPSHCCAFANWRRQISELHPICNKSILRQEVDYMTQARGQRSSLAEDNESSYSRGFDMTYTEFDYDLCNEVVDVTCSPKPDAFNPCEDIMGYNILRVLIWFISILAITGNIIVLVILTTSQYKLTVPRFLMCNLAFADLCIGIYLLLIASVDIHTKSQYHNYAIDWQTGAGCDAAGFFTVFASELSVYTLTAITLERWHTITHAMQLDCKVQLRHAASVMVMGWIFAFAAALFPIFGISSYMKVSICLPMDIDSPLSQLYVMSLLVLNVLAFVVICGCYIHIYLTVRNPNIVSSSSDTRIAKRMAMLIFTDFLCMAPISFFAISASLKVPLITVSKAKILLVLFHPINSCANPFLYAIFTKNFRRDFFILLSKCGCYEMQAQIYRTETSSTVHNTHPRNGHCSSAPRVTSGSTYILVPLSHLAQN
As to the kind of experiment: FSH Receptor Radioligand Membrane Binding Standard Pharmacological Test Procedure. Set-up: expressed in transfected cells. The conditions noted are these: [125I]FSH binding to membranes of CHO cells stably transfected with the human FSH receptor. The method, then: FSH Receptor Radioligand Membrane Binding Standard Pharmacological Test Procedure
Membrane Source: Chinese hamster ovarian cells stably transfected with the human FSH receptor were cultured (Ultra CHO medium containing 1% fetal bovine serum and 200 μg/mL G418) in and harvested. Cells were collected by centrifugation and resulting cell pellets were frozen and stored at −70° C.
Membrane Receptor Preparation: Frozen cell pellets were weighed and resuspended in binding buffer to a final concentration of 30 mg wet weight/mL. Cell suspension for each pellet was homogenized using a Tempest homogenizer (setting=1; 5 strokes; VirTis, Gardiner, N.Y.). Cell homogenates were pooled and 35 mL aliquots were transferred to 50-mL polypropylene copolymer centrifuge tubes (Nalgene cat. #3110-0500). Tubes were spun at 12,000 rpm (SS34 rotor) for 12 min at 4° C. Resulting supernatant fractions were discarded and pellets were stored at −70° C. until use. On the day of the procedure, 35 mL binding buffer was added to each tube (35 mL membrane suspension was sufficient for three 96-well plates). The membrane pellet was dispersed by trituration using a pipet. The resulting suspension wass homogenized using a Tempest homogenizer (3 strokes at setting=1).
Receptor Binding Test procedure: Membrane homogenate (100 μl) was added to each well of a 96-well microtiter plate (Falcon # 3077). All reactions were tested in triplicate. Test compound solutions (50 μl) were added to the designated wells. Total bound counts were determined by adding 50 μl binding buffer containing 4% DMSO to the designated wells. […] Plates were pre-incubated for 15 min at room temperature on shaking platform (setting=3). After preincubation [^125I]FSH (50 μl) was added to each well and plates were incubated for 2 h at room temperature on shaking platform (setting=3). The reaction was terminated by transfer of the membrane preparation to glass fiber filters (Blue Mat #11740; 102×256 mm; Skatron Instruments, Sterling, Va.) that had been pretreated with 1% BSA in wash buffer for at least 30 min, but not longer than 1 h using a 96-well microtiter vacuum harvester (Skatron Instruments). The membrane preparation was washed with 5 cycles of ice-cold wash buffer (200 μl/well/cycle) followed by a pulse wash of 3 cycles (100 μl/well/cycle). The total wash volume per well was 1.3 mL. The filters were dried by a 10 sec aspiration. Disks corresponding to each well of the microtiter plate were punched out of the filter mat into 12×75 mm polypropylene tubes. The radioactivity present on each of the disks was measured using a gamma counter.
An FSH dose response curve (0.001, 0.01, 0.1, 1, 10, and 100 nM) was generated for each binding procedure to monitor procedure to procedrue variability.
FSH Receptor Radioligand Membrane Binding Procedure Buffers and Reagents
Binding buffer is prepared in 11 volumes containing Trizma-HCl, MgCl2, CaCl2 and sodium azide, the pH was adjusted to 7.2 with NaOH, and stored at 4° C. until use. BSA was weighed out on the day of the procedure and added to the amount of buffer required for the procedure (usually 150 mL). The protease inhibitors were prepared as 1 mg/mL stocks (aprotinin, leupeptin, and phosphoramidon were prepared in binding buffer without BSA and protease inhibitors; pepstatin and PMSF were prepared in methanol), stored in 1 mL aliquots at −70° C., and added to the binding buffer on the day of the procedure.
Wash buffer was prepared containing Trizma-HCl, MgCl2 and EDTA, the pH was adjusted to 7.2 with NaOH, and stored at 4° C.
Filter Soak Buffer (pH 7.2)
BSA was weighed out on the day of the procedure and added to 300 mL of wash buffer. The filter soak buffer was used for two procedures before being discarded.
A portion of the stock solution was diluted in binding buffer to a concentration of 200 pM.
FSH Solution for Determining Non-specific Binding: Purified human FSH was prepared as a 100 μM solution in binding buffer without protease inhibitors. […]
The molecule `COc1ccc(C(=O)Nc2ccc(/C=C/c3ccc(NC(=O)c4ccc(OC)c(S(=O)(=O)N5CCCCC5)c4)cc3S(=O)(=O)O)c(S(=O)(=O)O)c2)cc1S(=O)(=O)N1CCCCC1` [Example 30h, 2,2′-[(E)-1,2-Ethenediyl]bis[5-[[4-methoxy-3-(1-piperidinylsulfonyl)benzoyl]amino]benzenesulfonic Acid]] had an IC50 of 7.3 µM. That is a single-digit micromolar value.

As to `O=C(O)CS(=O)(=O)c1cccc(C(=O)Nc2ccc(C=Cc3ccc(NC(=O)c4cccc(S(=O)(=O)CC(=O)O)c4)cc3S(=O)(=O)O)c(S(=O)(=O)O)c2)c1` [Example 36b, [3-(4-{2-[4-(3-Carboxymethanesulfonyl-benzoylamino)-2-sulfo-phenyl]-vinyl}-3-sulfo-phenylcarbamoyl)-benzenesulfonyl]-acetic Acid], the half-inhibitory concentration (IC50) is 21 µM.

In turn, `O=C(CS(=O)(=O)c1cccc(C(=O)Nc2ccc(/C=C/c3ccc(NC(=O)c4cccc(S(=O)(=O)CC(=O)NCCO)c4)cc3S(=O)(=O)O)c(S(=O)(=O)O)c2)c1)NCCO` [Example 37c, 5-[[3-[[2-[(2-Hydroxyethyl)amino]-2-oxoethyl]sulfonyl]benzoyl]amino]-2-[(E)-2-[4-[[3-[[2-[(2-hydroxyethyl)amino]-2-oxoethyl]sulfonyl]benzoyl]amino]-2-sulfo-phenyl]ethenyl]benzenesulfonic Acid] gave a 50% inhibitory concentration (IC50) of 6.7 µM.

As for `NC(=O)CS(=O)(=O)c1cccc(C(=O)Nc2ccc(/C=C/c3ccc(NC(=O)c4cccc(S(=O)(=O)CC(N)=O)c4)cc3S(=O)(=O)O)c(S(=O)(=O)O)c2)c1` [Example 37d, 5-[[3-[(2-Amino-2-oxoethyl)sulfonyl]benzoyl]amino]-2-[(E)-2-[4-[[3-[(2-amino-2-oxoethyl)sulfonyl]benzoyl]amino]-2-sulfophenyl]ethenyl]-benzenesulfonic Acid], the 50% inhibitory concentration (IC50) amounted to 4.3 µM.

The molecule `COCCOc1ccc(C(=O)Nc2ccc(/C=C/c3ccc(NC(=O)c4ccc(S(C)(=O)=O)cc4)cc3S(=O)(=O)O)c(S(=O)(=O)O)c2)cc1` [Example 40a, 5-[[4-(2-Methoxyethoxy)benzoyl]amino]-2-[(E)-2-[4-[[4-(methanesulfonyl)benzoyl]amino]-2-sulfophenyl]ethenyl]benzenesulfonic Acid] gave a concentration for half-maximal inhibition (IC50) of 6.2 µM.

Molecule `CS(=O)(=O)Cc1ccc(C(=O)Nc2ccc(/C=C/c3ccc(NC(=O)c4ccc(S(C)(=O)=O)cc4)cc3S(=O)(=O)O)c(S(=O)(=O)O)c2)cc1` [Example 40b, 5-[[4-(Methylsulfonyl)benzoyl]amino]-2-[(E)-2-[4-[[4-[(methylsulfonyl)methyl]benzoyl]amino]-2-sulfophenyl]ethenyl]benzenesulfonic Acid] returned an IC50 of 5.2 µM. The IC50 values of the last two molecules are within 1.5-fold of each other.

`COc1ccc(C(=O)Nc2ccc(CCc3ccc(NC(=O)c4ccc(OC)c(S(=O)(=O)N5CCS(=O)(=O)CC5)c4)cc3S(=O)(=O)O)c(S(=O)(=O)O)c2)cc1S(=O)(=O)N1CCS(=O)(=O)CC1` [Example 43c, 2,2′-(1,2-Ethanediyl)bis[5-[[3-[(1,1-dioxido-4-thiomorpholinyl)sulfonyl]-4-methoxybenzoyl]amino]benzenesulfonic Acid]] returned an IC50 of 4.5 µM.

`CS(=O)(=O)c1ccc(C(=O)Nc2ccc(CCc3ccc(NC(=O)c4ccc(S(C)(=O)=O)cc4)cc3S(=O)(=O)O)c(S(=O)(=O)O)c2)cc1` [Example 43e]: the half-maximal inhibitory concentration (IC50) amounted to 4.3 µM.

The molecule `COc1ccc(C(=O)Nc2ccc(CSCc3ccc(NC(=O)c4ccc(OC)c(S(=O)(=O)N5CCOCC5)c4)cc3S(=O)(=O)O)c(S(=O)(=O)O)c2)cc1S(=O)(=O)N1CCOCC1` [Example 50a, 2,2′-[Thiobis(methylene)]bis[5-[[4-methoxy-3-(4-morpholinylsulfonyl)benzoyl]amino]benzenesulfonic Acid]] had an IC50 of 34 µM.

In turn, `COc1ccc(C(=O)Nc2ccc(CS(=O)(=O)Cc3ccc(NC(=O)c4ccc(OC)c(S(=O)(=O)N5CCOCC5)c4)cc3S(=O)(=O)O)c(S(=O)(=O)O)c2)cc1S(=O)(=O)N1CCOCC1` [Example 50b, 2,2′-[Sulfonylbis(methylene)]bis[5-[[4-methoxy-3-(4-morpholinylsulfonyl)benzoyl]amino]benzenesulfonic acid]] came in with an IC50 of 41 µM.

With `CSc1ccc(C(=O)Nc2ccc(C=Cc3ccc(NC(=O)c4ccc(SC)c(S(=O)(=O)N5CCOCC5)c4)cc3S(=O)(=O)O)cc2)cc1S(=O)(=O)N1CCOCC1` [Example 59, 5-[4-Methylsulfanyl-3-(morpholine-4-sulfonyl)-benzoylamino]-2-(2-{[4-methylsulfanyl-3-(morpholine-4-sulfonyl)-benzoylamino]-phenyl}-vinyl)-benzenesulfonic Acid], the IC50 was found to be 16 µM.

Another assay concerns the target T1, FSH receptor. As to the kind of experiment: In Vitro Bio-test Procedure of Agonists and Antagonists to the FSH Receptor (cAMP accumulation in CHO-3D2 cells).
Settings: not given
It is filed as cell-based. The arrangement: expressed in transfected cells; host or cells: CHO-3D2 cells. The method, then: In Vitro Bio-test Procedure of Agonists and Antagonists to the FSH Receptor
The compounds were subsequently diluted in sterile procedure medium (Optimem (Gibco/BRL, Grand Island, N.Y.)/0.1% BSA) prior to use in the bio-procedure.
Preparation of CHO-3D2 Cells; CHO-3D2 cells were plated into 96-well Nunc tissue culture plates at a density of 30,000 cells/well in DMEM/F12 medium (Gibco/BRL, Grand Island, N.Y.) supplemented with 5% Fetal Bovine Serum (Hyclone, Fetal Clone II), 2 mM L-glutamine and penicillin/streptomycin (100 U/mL). Cells were plated one day prior to performing the bio-procedure.
Procedure: On the day of procedure, the wells were washed two times with 100 ul/well of pre-warmed (37 deg C.) procedure medium. After aspirating the second wash, an additional 100 ul of procedure medium was added to each well and the cells pre-incubated for 30-45 minutes at 37 deg C. In a humidified incubator with 5%CO2/95% air. The cells were then challenged with varying dilutions of the test substance(s) in a 50 ul total incubation volume in procedure medium for 30 minutes at 37 deg C. in the humidified incubator. The challenge was terminated by the addition of 50 ul of 0.2 N HCl to each well. CAMP accumulation in the medium was measured by radioimmunoassay.
Test Groups: In the 96-well format, the plate is organized into 12 columns each containing 8 rows of wells. The plate was split in half to test a single compound in both agonist and antagonist mode on the same plate.
For agonist mode, compounds were tested using 5 different concentrations in a dose-response paradigm using one column as a control (challenge medium alone) in agonist mode.
The 96-well format allowed for the capability to test 4 columns of compound, using one of the remaining columns for negative control (challenge medium alone) and the other remaining column for ampositive control (ED20 of FSH alone).
The doses chosen to test each compound were extrapolated from the initial screening process (receptor binding data). Along with the test compounds, FSH was run in agonist mode using doses ranging from 0.1 ng/mL-1000 ng/mL as a postive control. Cytotoxicity of the compounds were screened by treating cells with the highest concentration of each compound used in the cAMP procedure for 30 minutes followed by washing of the cells 2 times with 100 ul PBS. The cells were then incubated for 5 min at 37 deg C. in the presence of 50 ug/mL Fluorescein diacetate and 20 ug/mL Propidium iodide in 100 ul PBS. The cells were washed two times with 100 ul PBS followed by examination of the cells under a fluorescence microscope using a 490 nm filter. Viable cells stained green throughout, while dead cells had red fluorescent nuclei.
Analysis of Results: cAMP accumulation was expressed as fmol/mL. […] Data were analyzed statistically by analysis of variance and significant differences between treatments and control determined by Dunnett's test. In antagonist mode, a Duncan's test was used.
Reference Compounds: Test compounds were compared to the effect of purified or recombinant human FSH.
Molecule `COc1ccc(C(=O)Nc2ccc(/C=C/c3ccc(NC(=O)c4ccc(OC)c(S(=O)(=O)N5CCCCC5)c4)cc3S(=O)(=O)O)c(S(=O)(=O)O)c2)cc1S(=O)(=O)N1CCCCC1` [Example 30h, 2,2′-[(E)-1,2-Ethenediyl]bis[5-[[4-methoxy-3-(1-piperidinylsulfonyl)benzoyl]amino]benzenesulfonic Acid]] displayed an IC50 of 8.1 µM.

The values above are taken from US6355633B1, “Aryl sulfonic acids and derivatives as FSH antagonists” (American Home Products Corporation, priority 1999, dated 2002).
